Assay results: patent EP0891770B1, “Killer T cell activator and use thereof” (Nitto Denko Corporation, priority 1997, dated 1999)
Where two headings read alike, the source gives them in different places. Where a SMILES comes first, the peptide text is derived from it.

Columns and labels:
[1] = system: HSV peptide-pulsed L cells; details: peptide given as inoculated pressure sensitive adhesive tape
Procedure: At 1 week after the peptide application, cervical lymph node was removed, and lymphocytes were cultured for 2 days in vitro in an RPMI1640 medium containing a slight amount (5 U/ml) of IL-2. The L^kb cells labeled with ^51Cr were pulsed with antigenic peptide (5 µmol) and L^tk- cells were used as a control. Cytotoxicity assay was performed using cultured lymphocytes as effector cells, and ^51Cr-labeled and antigenic peptide-pulsed L^kb cells and L^tk- cells as target cells. […] The antigenic peptides used were the three kinds recited in Reference Example 1.

[2] = system: antigenic peptide-pulsed L^kb cells

Structure (SMILES)	Cytotoxic activity specific to HSV peptide-pulsed L cells (%) ([1]; time after stripping 12)	Cytotoxic activity specific to HSV peptide-pulsed L cells (%) ([1]; time after stripping 24)	Cytotoxic activity specific to HSV peptide-pulsed L cells (%) ([1]; time after stripping 48)	Cytotoxic activity specific to HSV peptide-pulsed L cells (%) ([1]; time after stripping: untreated)	cytotoxic activity of cervical lymphocyte-derived effector cells (antigen specificity) [2]
CC[C@H](C)[C@H](NC(=O)[C@H](CO)NC(=O)[C@@H](N)CO)C(=O)N[C@@H](CCC(=O)O)C(=O)N[C@@H](Cc1ccccc1)C(=O)N[C@@H](C)C(=O)N[C@@H](CCCNC(=N)N)C(=O)N[C@@H](CC(C)C)C(=O)O [HSV gp B, Ser Ser Ile Glu Phe Ala Arg Leu] (H-SSIEFARL-OH)	45.3 ± 1.5%	37.0 ± 1.1%	3.5 ± 0.6%	0.2 ± 0.8%	recognized and certainly eradicated the cells presenting an H-2K^b - HSV gp B peptide complex alone
CC(C)C[C@H](NC(=O)CNC(=O)[C@H](CCC(N)=O)NC(=O)[C@H](Cc1ccc(O)cc1)NC(=O)[C@@H](NC(=O)[C@H](Cc1ccc(O)cc1)NC(=O)CNC(=O)[C@@H](N)CCCNC(=N)N)C(C)C)C(=O)O [VSV NP, Arg Gly Tyr Val Tyr Gln Gly Leu]					selectively damaged the cells presenting respective inoculated antigenic peptides
CC[C@H](C)[C@H](NC(=O)[C@@H](NC(=O)[C@@H](N)CO)[C@@H](C)CC)C(=O)N[C@@H](CC(N)=O)C(=O)N[C@@H](Cc1ccccc1)C(=O)N[C@@H](CCC(=O)O)C(=O)N[C@@H](CCCCN)C(=O)N[C@@H](CC(C)C)C(=O)O [Ovalbumin, Ser Ile Ile Asn Phe Glu Lys Leu]					selectively damaged the cells presenting respective inoculated antigenic peptides
